Laboratory results reported in US10662194B2, “Substituted 6-anilino-9-heterocyclylpurine derivatives for inhibition of plant stress” (UNIVERZITA PALACKEHO V OLOMOUCI, priority 2014, dated 2020).

How the values were obtained:
ARR5:GUS reporter gene = test: Induction of cytokinin reporter ARR5:GUS in transgenic Arabidopsis plants; format: in vivo; conditions: 0.01-10 μM, 17 h, FIG. 2
Experimental: Cytokinins induce in Arabidopsis transcription of gene ARR5, a member of A-type response regulator family classified as cytokinin primary response genes being expressed down-stream of sensing by cytokinin receptors. We cultivated transgenic Arabidopsis plants harbouring PARR5::GUS reporter (D'Agostino et al. Plant Physiol. 124: 1706-1717, 2000) in MS medium containing cytokinin BAP, CKX inhibitor INCYDE and novel compounds 12 and 91 in concentrations 0.01, 0.1, 1, 5, 10 μM; DMSO (0.1%) was tested as solvent control. Seeds were surface-sterilized in 70% ethanol and then placed into wells of 6-well microtiter plate (TPP, Switzerland) containing 3 mL of MS medium in each well. After sowing plates were pretreated in dark at 4° C. to synchronize the germination of the seeds. […] Quantitative estimation of the level of ARR5:GUS gene induction was done according to method published by Romanov et al. (Romanov et al. FEBS Letters 515: 39-43, 2002). After extraction of proteins the GUS activity was determined using incubation with fluorogenic substrate MUG (4-methylumbelliferyl glucuronid; 1 h, 37° C.) and then fluorescence 365 nm and 460 nm (excitation and emission wavelengths) was recorded, as described in detail by Spíchal et al. (Spíchal et al. Plant and Cell Physiology 45: 1299-1305, 2004).

[1] = test system: CKX1 overproducing (35S:CKX1) Arabidopsis seedlings; test: In vitro shoot and root growth of cytokinin deficient Arabidopsis plants; format: in vivo
From the text: Constitutive overexpression of CKX in 35S:CKX1 plants leads to enhanced root growth. If CKX inhibitor can restore WT phenotype, it is expected that inhibition of the CKX activity in 35S:AtCKX1 plants should thus have no effect or inhibit their root growth. Such observation was done in case of INCYDE, but not compound 12.

[2] = Calcein AM viability/cytotoxicity assay, MRC-5; format: cell-based; conditions: human, MRC-5 lung fibroblasts; MRC-5, 72 h, FIG. 11; read-out: IC50, concentration reducing number of viable cells to 50%
From the text: Absence of toxic effects against mammalian (especially human) cell lines in a wide concentration range is one of the requirements on compounds intended for use in agriculture and medicine. Because toxic compounds negatively influence metabolic processes in cells, many standard cytotoxicity assays are based on measurement of metabolisation rate of various artificial substrates. Resulting product is then quantified e.g. by means of spectrometry. The assays can be easily modified for use in 96-well plates. For evaluation of cytotoxic effect of compounds of this invention, a microtiter assay based on quantification of metabolisation of Calcein AM was used. The assay is widely used in drug screening programs and in chemosensitivity testing. In live cells, Calcein AM is enzymatically hydrolysed and accumulation of resulting calcein is manifested by green fluorescence. The cytotoxicity of the studied compounds was determined with human fibroblast lines MRC-5 (lung fibroblasts) and BJ (foreskin fibroblasts). […] The fluorescence of the live cells was measured at 485 nm/538 nm (excitation/emission) with a Fluoroskan Ascent microplate reader (Labsystems). […]

## COc1cccc(Nc2nc(Cl)nc3c2ncn3C2CCCCO2)c1 (stereo not shown) [compound 12, 2-chloro-6-(3-methoxyanilino)-9-(tetrahydropyran-2-yl)purine]
ARR5:GUS reporter gene
  induction of ARR5:GUS expression: dose-dependent induction of ARR5:GUS expression
[1]; 0.1 μM in MS medium, FIG. 3, 4
  complementation of wild type shoot phenotype: led to restauration of wild type shoot phenotype
[1]; tested concentration range, FIG. 5
  root biomass of 35S:CKX1 plants: strong dose-dependent positive effect
[2]
  IC50 at 72 h: > 100 µM
